How the values were obtained:
[1] = tested on: Seq1s-4U (RNA, hairpin) ACCGUGACGGGCCUUUUGGCUAUACGCGGU; assay: NMR solution structure and titration; conditions: phosphate buffer, 5% D2O for titration
[2] = tested on: Seq1s (RNA, hairpin) ACCGUGACGGGCCUUUUUGGCUAUACGCGGU; assay: CSI-TOF mass spectrometry; conditions: 40 μM NA, 5 μM RNA
[3] = tested on: Seq1s (RNA, hairpin) ACCGUGACGGGCCUUUUUGGCUAUACGCGGU; assay: UV thermal melting; conditions: 10 μM NA; Tm 66.9 ± 2.0 to 72.1 ± 1.5 °C

Cc1ccc2ccc(NC(=O)CCNCCC(=O)NCc3ccc4ccc(=O)[nH]c4n3)nc2n1
binding [1]: yes
binding [2]: yes
ΔTm [3]: 5.2 °C

Source: paper PMC12368606 (2025)
